Assay results from US20230053342A1, “IMIDAZOLIDINONE COMPOUND, PREPARATION METHOD THEREFOR AND USE THEREOF” (BETTA PHARMACEUTICALS CO., LTD, priority 2019, published 2023).

Tests used:
[1] = Pharmacokinetic test in male SD rats; assay type: in vivo; settings: rat, plasma
Protocol: Method: 42 male SD rats, weight: 150-300 g. Divided into 7 groups randomly, with 6 rats in each group. Among the 6 rats in each group, three of them were administrated a single intravenous injection of […] of the example compound, the other three were given intragastric administration of […] of the example compound, blood was collected from the orbital venous plexus at designated time points, plasma was separated, and stored in a −80° C. refrigerator for later use.
The protein of the resultant plasma was precipitated by acetonitrile, the supernatant was extracted, and mixed with water at the ratio of 1:1, took 10 μL of which for LC-MS/MS detection, and calculated the average was calculated.

PI3Kα = PI3Kα (Homo sapiens, UniProt P42336); experiment: Kinase experiment (ADP-Glo, luminescence), PI3Kα; assay type: biochemical; settings: final concentration of ATP 10 μM; read-out: IC50 of compound to PI3K (nM) α
Sequence of PI3Kα (P42336 whole entry): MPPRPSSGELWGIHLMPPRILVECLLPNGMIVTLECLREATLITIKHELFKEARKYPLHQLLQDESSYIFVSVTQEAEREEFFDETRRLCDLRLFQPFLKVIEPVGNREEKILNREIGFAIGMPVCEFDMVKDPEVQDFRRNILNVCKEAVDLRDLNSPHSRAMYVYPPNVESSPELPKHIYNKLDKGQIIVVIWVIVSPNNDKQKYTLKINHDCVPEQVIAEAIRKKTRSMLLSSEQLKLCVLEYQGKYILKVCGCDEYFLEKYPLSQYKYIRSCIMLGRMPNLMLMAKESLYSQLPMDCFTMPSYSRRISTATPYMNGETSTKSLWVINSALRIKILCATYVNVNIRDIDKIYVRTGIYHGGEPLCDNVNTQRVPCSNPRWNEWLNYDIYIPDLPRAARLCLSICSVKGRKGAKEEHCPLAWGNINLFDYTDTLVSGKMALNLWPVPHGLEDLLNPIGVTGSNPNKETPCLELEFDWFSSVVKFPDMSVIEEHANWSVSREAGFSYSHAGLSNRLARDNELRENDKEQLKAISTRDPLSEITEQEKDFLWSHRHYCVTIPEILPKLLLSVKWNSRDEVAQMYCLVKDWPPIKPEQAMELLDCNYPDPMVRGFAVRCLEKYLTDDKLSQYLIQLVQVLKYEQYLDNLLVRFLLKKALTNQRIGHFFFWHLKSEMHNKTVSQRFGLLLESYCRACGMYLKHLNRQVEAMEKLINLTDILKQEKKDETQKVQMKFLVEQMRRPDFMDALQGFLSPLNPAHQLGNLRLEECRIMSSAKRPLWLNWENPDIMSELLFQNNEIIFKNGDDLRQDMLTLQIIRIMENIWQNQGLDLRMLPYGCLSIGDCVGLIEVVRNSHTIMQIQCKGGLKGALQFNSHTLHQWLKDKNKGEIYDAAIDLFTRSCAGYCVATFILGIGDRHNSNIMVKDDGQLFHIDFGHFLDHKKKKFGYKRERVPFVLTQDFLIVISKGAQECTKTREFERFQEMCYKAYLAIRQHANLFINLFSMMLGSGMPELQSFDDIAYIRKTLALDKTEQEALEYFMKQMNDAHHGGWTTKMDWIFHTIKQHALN
Sequence of PI3Kα (P27986 whole entry partner): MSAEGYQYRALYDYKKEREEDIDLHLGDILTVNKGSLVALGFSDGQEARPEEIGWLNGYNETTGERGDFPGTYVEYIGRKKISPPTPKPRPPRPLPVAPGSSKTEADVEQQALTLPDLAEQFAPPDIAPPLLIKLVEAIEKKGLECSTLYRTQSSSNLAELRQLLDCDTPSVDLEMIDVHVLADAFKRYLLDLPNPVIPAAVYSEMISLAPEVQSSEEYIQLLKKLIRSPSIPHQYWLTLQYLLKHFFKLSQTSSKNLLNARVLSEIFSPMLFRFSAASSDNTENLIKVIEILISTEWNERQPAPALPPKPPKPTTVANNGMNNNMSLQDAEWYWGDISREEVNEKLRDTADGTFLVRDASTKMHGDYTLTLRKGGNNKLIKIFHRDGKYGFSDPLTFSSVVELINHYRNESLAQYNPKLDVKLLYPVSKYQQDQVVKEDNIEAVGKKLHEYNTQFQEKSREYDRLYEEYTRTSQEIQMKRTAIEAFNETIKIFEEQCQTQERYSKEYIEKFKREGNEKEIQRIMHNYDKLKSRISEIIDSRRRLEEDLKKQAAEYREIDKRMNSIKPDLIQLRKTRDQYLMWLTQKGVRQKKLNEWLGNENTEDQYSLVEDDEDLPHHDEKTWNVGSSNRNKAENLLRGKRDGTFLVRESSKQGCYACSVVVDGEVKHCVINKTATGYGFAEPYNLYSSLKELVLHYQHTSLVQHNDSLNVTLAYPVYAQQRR
Protocol: (§1) PI3Kα, PI3Kβ, PI3Kγ kinases undergo enzymatic reactions with their substrates ATP and PIP2:3PS, the amount of the product detected by ADP-Glo agent and luminescence method were used to reflect the enzymatic activities of PI3Kα, PI3Kβ, PI3Kγ (the final concentration of ATP is 10 μM). The above methods were used to test the inhibitory activity of certain compound of the present invention on PI3Kα, PI3Kβ and PI3Kγ kinase.
(§2) Agent: Basic kinase buffer (pH 7.5); PI3Kα, PI3Kβ, PI3Kγ kinase solutions; PIP2:3PS and ATP solutions; ADP-Glo kit (containing 10 mM MgCl2).
(§3) Wherein, the buffer composition: 50 mM Hepes (pH 7.2-7.5), 3 mM MgCl2, 1 mM EGTA, 0.03% CHAPS, 100 mM NaCl, 2 mM DTT; • Compound preparation: The tested compound was diluted to a specific concentration with 100% DMSO. • Process: 1) PI3Kα, PI3Kβ, or PI3Kγ protein solution were dispensed to a 384-well assay plate (6008280, PerkinElmer), and centrifuged at 1000 rpm for 1 minute. • 2) Tested compound, negative control DMSO or positive control BYL719 was dispensed to the above-mentioned 384-well assay plate with the kinase, centrifuged at 1000 rpm for 1 min, and incubated at 25° C. for 15 mins. • 3) PIP2:3PS&ATP solution was added to the above-mentioned 384-well assay plate, centrifuged at 1000 rpm for 1 min, incubated at 25° C. for 60 mins. • 4) 5 μL of ADP-Glo agent (10 mM MgCl2 contained) was transferred to the 384-well assay plate, centrifuged at 1000 rpm for 1 min, incubated at 25° C. for 40 mins. • 5) 10 μL of Detection agent was transferred to the 384-well assay plate, centrifuged at 1000 rpm for 1 min, incubated at 25° C. for 40 mins. • 6) RLU (Relative luminescence unit) value was measured by Envision multifunctional plate reader. The RLU value was used to characterize the degree of reaction between the enzyme and the substrate, and calculate the IC50 value. • 7) Data analysis:
(§4) Compound inhibition rate(% inh)=(negative control RLU-tested compound RLU)/(negative control RLU-positive control RLU)*100%
(§5) The IC50 (half inhibitory concentration) of the compound was obtained using the following nonlinear fitting formula:
(§6) Y=minimum inhibition rate+(max inhibition rate-minimum inhibition rate)/(1+10^((Log IC50−X)*slope)); wherein, X is the log value of the concentration of the tested compound, Y is the inhibition rate of tested compound(% inh).

PI3Kγ = PI3Kγ (Homo sapiens, UniProt P48736); experiment: Kinase experiment (ADP-Glo, luminescence), PI3Kγ; assay type: biochemical; settings: final concentration of ATP 10 μM; read-out: IC50 of compound to PI3K (nM) γ
Sequence of PI3Kγ (P48736 whole entry): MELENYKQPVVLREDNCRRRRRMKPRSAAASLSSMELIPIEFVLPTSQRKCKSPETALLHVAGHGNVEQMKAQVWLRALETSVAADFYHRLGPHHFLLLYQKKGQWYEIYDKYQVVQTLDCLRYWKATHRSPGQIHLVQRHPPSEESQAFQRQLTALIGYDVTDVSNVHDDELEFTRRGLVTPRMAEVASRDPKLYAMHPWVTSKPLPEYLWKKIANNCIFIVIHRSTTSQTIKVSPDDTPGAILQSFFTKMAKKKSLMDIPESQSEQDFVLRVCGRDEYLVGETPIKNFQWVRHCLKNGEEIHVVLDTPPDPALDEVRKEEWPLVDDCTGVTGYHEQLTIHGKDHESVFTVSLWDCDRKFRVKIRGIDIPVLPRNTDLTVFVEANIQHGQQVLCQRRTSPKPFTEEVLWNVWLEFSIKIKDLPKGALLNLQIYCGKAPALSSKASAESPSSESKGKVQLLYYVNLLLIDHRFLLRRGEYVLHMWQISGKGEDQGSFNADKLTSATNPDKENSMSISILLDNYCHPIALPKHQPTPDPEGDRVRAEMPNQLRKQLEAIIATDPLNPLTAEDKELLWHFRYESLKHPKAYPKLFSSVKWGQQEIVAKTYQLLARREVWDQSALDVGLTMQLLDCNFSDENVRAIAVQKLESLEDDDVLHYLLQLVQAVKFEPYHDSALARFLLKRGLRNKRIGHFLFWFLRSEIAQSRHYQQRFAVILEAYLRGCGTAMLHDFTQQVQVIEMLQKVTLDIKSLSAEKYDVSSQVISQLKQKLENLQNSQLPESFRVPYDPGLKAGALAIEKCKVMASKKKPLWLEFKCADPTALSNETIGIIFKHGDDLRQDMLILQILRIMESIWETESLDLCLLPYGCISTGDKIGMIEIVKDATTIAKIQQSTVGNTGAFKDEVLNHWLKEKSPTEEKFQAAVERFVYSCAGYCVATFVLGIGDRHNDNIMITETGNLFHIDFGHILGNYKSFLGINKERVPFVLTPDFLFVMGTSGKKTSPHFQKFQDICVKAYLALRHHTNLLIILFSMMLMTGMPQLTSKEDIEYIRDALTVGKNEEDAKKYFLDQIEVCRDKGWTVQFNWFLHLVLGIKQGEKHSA
Protocol: as §1, §2, §3, §4, §5, §6

human tumor cells HGC27 = experiment: Cell proliferation assay (CellTiter Glo), HGC27; assay type: cell-based; settings: HGC-27, HGC27 cells incubated for 96 h, read-out: IC50(μM) of ompound on HGC-27cell
Protocol: (§7) Method: The anti-proliferative effects on human tumor cells MCF-7 and HGC27 of certain compounds of the present invention were evaluated by CellTiter Glo assay.
(§8) Detection method: MCF-7 cells were suspended in DMEM culture medium, the cell concentration of which was adjusted to 25000 cells/mL; HGC27 cells were suspended in RPMI-1640 culture medium, the cell concentration of which was adjusted to 5000 cells/mL. 100 μL of cell suspension was dispensed to a 96-well assay plate and placed in a CO2 incubator overnight. The tested compounds were dissolved in DMSO, and 3-fold derail dilution was performed to obtain 10-point concentrations. the 10-point concentrations of the tested compounds or or negative control was transferred to the well containing 100 μL of culture medium respectively, incubated at 37° C., 5% CO2, the HGC27 cells were incubated for 96 h, MCF-7 cells were incubated for 120 h. Then 100 μL of CellTiter-Glo agent was added to the above-mentioned 96-well assay plate, incubated at room temperature for 10 minutes to allow stable luminescence signal. VICTOR™ X5 instrument was used to record RLU (relative luminescence unit), and then calculate the IC50 values were calculated.
(§9) Compound inhibition rate(% inh)=100% −(tested compound RLU-blank control RLU)/(negative control RLU-blank control RLU)*100%
(§10) Blank control: blank culture medium, with no compound or cell;
as §5
(§11) Y=minimum inhibition rate+(max inhibition rate-minimum inhibition rate)/(1+10^((Log IC50−X)*slope)); wherein, X: the log value of the concentration of the tested compound; Y: the inhibition rate of the tested compound(% inh).

human tumor cells MCF-7 = experiment: Cell proliferation assay (CellTiter Glo), MCF-7; assay type: cell-based; settings: MCF7, MCF-7 cells incubated for 120 h, read-out: IC50(μM) of compound on MCF cell
Protocol: as §7, §8, §9, §10, §5, §11

PI3Kβ = PI3Kβ (Homo sapiens, UniProt P42338); experiment: Kinase experiment (ADP-Glo, luminescence), PI3Kβ; assay type: biochemical; settings: final concentration of ATP 10 μM; read-out: IC50 of compound to PI3K (nM) β
Sequence of PI3Kβ (P42338 whole entry): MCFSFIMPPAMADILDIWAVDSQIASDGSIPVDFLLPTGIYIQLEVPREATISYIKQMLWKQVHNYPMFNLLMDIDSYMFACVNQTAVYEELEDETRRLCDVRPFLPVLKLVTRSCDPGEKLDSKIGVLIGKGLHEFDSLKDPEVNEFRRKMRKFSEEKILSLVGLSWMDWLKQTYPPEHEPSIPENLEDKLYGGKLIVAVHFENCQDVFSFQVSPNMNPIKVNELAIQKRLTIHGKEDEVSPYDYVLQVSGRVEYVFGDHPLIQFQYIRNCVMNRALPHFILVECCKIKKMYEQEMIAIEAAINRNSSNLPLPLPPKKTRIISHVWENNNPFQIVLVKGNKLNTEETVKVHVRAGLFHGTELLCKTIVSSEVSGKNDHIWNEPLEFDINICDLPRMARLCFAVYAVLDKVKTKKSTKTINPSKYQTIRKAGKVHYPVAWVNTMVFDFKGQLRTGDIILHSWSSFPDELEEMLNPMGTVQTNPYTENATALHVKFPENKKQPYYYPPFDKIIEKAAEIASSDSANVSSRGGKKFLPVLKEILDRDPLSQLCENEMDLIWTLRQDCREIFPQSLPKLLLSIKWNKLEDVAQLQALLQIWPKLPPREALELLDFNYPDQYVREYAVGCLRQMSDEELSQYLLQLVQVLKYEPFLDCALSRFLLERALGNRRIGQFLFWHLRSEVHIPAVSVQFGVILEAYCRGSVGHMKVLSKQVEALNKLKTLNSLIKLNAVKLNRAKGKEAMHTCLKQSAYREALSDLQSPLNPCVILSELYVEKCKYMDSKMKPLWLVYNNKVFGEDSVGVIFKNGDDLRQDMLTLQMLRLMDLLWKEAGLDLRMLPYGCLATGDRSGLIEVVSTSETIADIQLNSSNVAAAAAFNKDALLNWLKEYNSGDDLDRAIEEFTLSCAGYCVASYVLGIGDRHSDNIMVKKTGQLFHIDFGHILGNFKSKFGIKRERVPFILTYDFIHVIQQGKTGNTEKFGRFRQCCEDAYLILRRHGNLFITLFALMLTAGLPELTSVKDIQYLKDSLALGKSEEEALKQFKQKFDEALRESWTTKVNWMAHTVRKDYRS
Sequence of PI3Kβ (P27986 whole entry partner): as the sequence (P27986 whole entry partner) above
Protocol: as §1, §2, §3, §4, §5, §6

clearance ([1]; intravenous injection, 2 mg/kg): 11.1 mL/min/kg
AUC ([1]; po, gavage, 10 mg/kg): 19800 ng·h/mL
Cmax ([1]; po, gavage, 10 mg/kg): 1600 ng/mL
IC50 (PI3Kα): < 5 nM
IC50 (PI3Kγ): > 600 nM
IC50 (human tumor cells HGC27): 0.267 µM
IC50 (human tumor cells MCF-7): 0.047 µM
IC50 (PI3Kβ): > 600 nM
SMILES: CC(C)[C@H]1C(=O)N(C2CC2)C(=O)N1c1cn2c(n1)-c1ccc(N3CCC[C@H]3C(N)=O)cc1OCC2 [Example 33, (2S)-1-(2-((5S)-3-cyclopropyl-5-isopropyl-2,4-dioxoimidazolidin-1-yl)-5,6-dihydrobenzo[f]imidazo[1,2-d] [1,4]oxazepin-9-yl)pyrrolidine-2-carboxamide]
